The values below come from US20240018118A1, “TRICYCLIC COMPOUNDS TO DEGRADE NEOSUBSTRATES FOR MEDICAL THERAPY” (C 4 Therapeutics, Inc., priority 2020, published 2024).

In test [1] the target is T1, CRBN-NanoLuc® fusion protein in 293T cells (Homo sapiens, UniProt Q96SW2).
T1 construct: expressed in transfected cells; host or cells: 293T (line named 293T.116)
The test can be described thus: NanoBRET assay: competitive displacement of pomalidomide-NanoBRET tracer from CRBN-NanoLuc in 293T.116 cells. Type of test: binding. The settings on record: 2 h at 37° C., tracer at 300 nM. The protocol:
The cell permeability and binding affinity of test compounds to cellular cereblon (CRBN) was determined by competitive displacement of a pomalidomide-NanoBRET™ tracer reversibly bound to a CRBN-NanoLuc® fusion protein in 293T cells. 293T cells were modified by lentiviral transfection to express a fusion of CRBN and NanoLuc® luciferase. […] Affinity of test compound was determined by displacement of NanoBRET-pomalidomide tracer signal following the addition of NanoBRET reagents (Promega) per manufacturer's instructions.
40 μL 293T.116 cells suspended in OptiMEM media at 2×10^5 cells/mL (8000 cells/well) were dispensed using a Multidrop Combi Reagent Dispenser (Thermo Fisher) to each well of 384-well white TC-treated microplates. 10 mM DMSO test compound stock solution was serially diluted (half log) in DMSO to generate 11-point dose series (10000, 3160, 1000, 316, 100, 31.6, 10, 3.2, 1, 0.3, 0.1 μM) in an acoustic ready 384-well low dead volume microplate (Labcyte). […] 20 μL NanoBRET TE Assay reagents were added to each well and NanoBRET signal was acquired on an EnVision Multilabel Reader (PerkinElmer). Donor emission from CRBN-NanoLuc was detected at 450 nm with a NanoLuc 460/50 filter and Acceptor fluorescence of NanoBRET-pomalidomide tracer (618 nm) was detected with a 600 nm long pass NanoBRET filter. Ratio of Acceptor signal/Donor signal was calculated for each well. […]

Test [2] deals with GSPT1 (Homo sapiens, UniProt P15170+Q96SW2). The test can be described thus: HiBiT degradation assay, 293T.114 cells, GSPT1. It counts as cell-based. The settings on record: 293T.114 cells, 6 hours. The protocol: GSPT1 degradation was determined based on quantification of luminescent signal using Nano-Glo® HiBiT Lytic Assay kit. Test compounds were added to the 384-well plate from a top concentration of 10 μM with 5 points, 3-fold titration in quadruplicates. 293T.114 cells were added into 384-well plates at a cell density of 6000 cells per well. […] The cells treated in the absence of the test compound were the negative control and the cells without Nano-Glo® HiBiT Lytic reagent were the positive control. […] Luminescence was acquired on EnVision™ Multilabel Reader (PerkinElmer, Santa Clara, CA, USA).

Test [3] has as its target SALL4 (Homo sapiens, UniProt Q96SW2+Q9UJQ4). The test can be described thus: HiBiT degradation assay, KELLY.2 (SALL4-HiBiT) cells. Type of test: cell-based. The protocol:
RPMI 1640 Medium without phenol red, fetal bovine serum (FBS), and Sodium Pyruvate (100 mM) were purchased from Gibco (Grand Island, NY, USA). Nano-Glo® HiBiT Lytic Assay System was purchased from Promega (Madison, WI, USA). […] Cell culture flasks and 384-well microplates were acquired from VWR (Radnor, PA, USA).
SALL4 degradation was determined based on quantification of luminescent signal using Nano-Glo® HiBiT Lytic Assay kit. Test compounds were added to the 384-well plate from a top concentration of 10 μM with 11 points, half log titration in duplicates. KELLY.2 cells were added into 384-well plates at a cell density of 6000 cells per well. The plates were kept at 37° C. with 5% CO2 for 6 hours. The cells treated in the absence of the test compound were the negative control and the cells without Nano-Glo® HiBiT Lytic reagent were the positive control. After 6-hour incubation, Nano-Glo® HiBiT Lytic Assay reagents were added to the cells. Luminescence was acquired on EnVision™ Multilabel Reader (PerkinElmer, Santa Clara, CA, USA).

For test [4], the target named is T2, IKZF1 (Homo sapiens, UniProt Q13422+Q96SW2).
T2 construct: endogenously expressing IKZF1 with HiBiT fusion tag via CRISPR; endogenous in cells; host or cells: NCIH929.11 (CRISPR knock-in)
The test can be described thus: HiBiT degradation assay, NCIH929.11 (HiBiT-IKZF1) cells. Type of test: cell-based. As to the method: RPMI no-phenol red medium and fetal bovine serum (FBS) were purchased from Gibco (Grand Island, NY, USA). Nano-Glo® HiBiT Lytic Assay System was purchased from Promega (Madison, WI, USA). NCIH929.11 (HiBiT-IKZF1) cell line was generated in house, endogenously expressing IKZF1 with HiBiT fusion tag via CRISPR. Cell culture flasks and 384-well microplates were acquired from VWR (Radnor, PA, USA).
IKZF 1 degradation was determined based on quantification of luminescent signal using Nano-Glo® HiBiT Lytic Assay kit. Test compounds were added to the 384-well plate from a top concentration of 10 μM with 11 points, half-log titration in duplicates. NCIH929.11 cells expressing HiBiT-tagged TKZF1 were added into 384-well plates in RPMI medium containing 10% FBS and 0.05 mM 2-mercaptoethanol at a cell density of 15000 cells per well. The plates were kept at 37° C. with […] for 6 hours. Cells treated in the absence of the test compound were the negative control and wells containing media only were the positive control. After 6-hour incubation, Nano-Glo® HiBiT Lytic Assay reagents were added to the designated wells. Luminescence was acquired on EnVision™ Multilabel Reader (PerkinElmer, Santa Clara, CA, USA).

Test [5] concerns the target T3, CRBN (Homo sapiens, UniProt Q96SW2).
T3 construct: expressed in transfected cells; host or cells: 293T (line named 293T.116)
The test can be described thus: NanoBRET CRBN binding, 293T.116 cells. Particulars: 2 hours.

Some results are limits rather than exact numbers.

The compound `N#Cc1ccc2c3c(cccc13)N(C1CCC(=O)NC1=O)C2=O` (stereo not drawn) [Compound 225] displayed an IC50 in test [1] of 60 nM.

For `O=C1CCC(N2C(=O)c3ccc(Br)c4cccc2c34)C(=O)N1` (stereo not drawn) [Compound 224], the IC50 is 40 nM in test [1] and less than 100 nM in test [5]. The DC50 in test [2] (read-out: HiBiT-Degradation 293T.114 GSPT1 6 hours DC50) was greater than 10000 nM; in test [3] (KELLY.2 cells, 6 hours) it was less than 100 nM; in test [4] (NCHI929.11 cells, 6 hours) it was greater than 10000 nM. Moreover, the Emax in test [2] (read-out: HiBiT-Degradation 293T.114 GSPT1 6 hours Emax) was 60 to 95%; in test [3] (read-out: HiBiT-Degradation KELLY.2 SALL4 6 hours Emax, KELLY.2 cells) it was less than 45%; in test [4] (read-out: HiBiT-Degradation NCHI929.11 IKZF1 6 hours Emax, NCHI929.11 cells), 60 to 95%.
